# Values quoted from earlier work as cited in patent US20200376001A1, “USE OF ANDROGEN FOR TREATING GASTROINTESTINAL DISORDERS” (priority 2012, published 2020).
# Like-named read-outs stand apart in the source and are kept apart here.
# Legend:
# [1] = biological target: T1, Sex Hormone Binding Globulin (SHBG) (Homo sapiens, UniProt P04278); conditions: greater than that of testosterone
# T1 sequence (P04278 30-402): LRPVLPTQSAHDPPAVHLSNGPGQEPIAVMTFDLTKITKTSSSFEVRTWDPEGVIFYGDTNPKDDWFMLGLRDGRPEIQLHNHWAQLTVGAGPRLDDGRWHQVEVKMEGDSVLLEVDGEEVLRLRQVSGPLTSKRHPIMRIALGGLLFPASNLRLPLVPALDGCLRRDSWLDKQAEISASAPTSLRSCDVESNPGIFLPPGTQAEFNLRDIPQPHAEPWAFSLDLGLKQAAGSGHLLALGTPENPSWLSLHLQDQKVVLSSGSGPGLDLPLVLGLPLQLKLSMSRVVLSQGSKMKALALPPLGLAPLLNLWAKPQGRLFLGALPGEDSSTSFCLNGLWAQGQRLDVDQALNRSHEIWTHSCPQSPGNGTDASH
# [2] = test system: Sex Hormone Binding Globulin (SHBG); conditions: for decrease of SHBG (serum concentration): serum SHBG in the body after administration of synthetic androgen
# [3] = compared with danazol
Compound,affinity for SHBG relative to testosterone [1],decrease of SHBG (serum concentration) [2] [%],decrease of SHBG (serum concentration) ([2]; listed as Danazol),"potency mg for mg relative to danazol ([2]; SHBG reduction, relative to danazol) [times]",side effects and hirsutism [3]
"C[C@]12CC[C@H]3[C@@H](CCC4=CC(=O)CC[C@@H]43)[C@@H]1CC[C@@H]2O [Nandrolone, nandrolone]",about three,,,,
C#C[C@]1(O)CC[C@H]2[C@@H]3CCC4=Cc5oncc5C[C@]4(C)[C@H]3CC[C@@]21C [danazol],,80,does this as well,,
C[C@]12Cc3c[nH]nc3C[C@@H]1CC[C@@H]1[C@@H]2CC[C@@]2(C)[C@H]1CC[C@]2(C)O [stanozolol],,80,,100,reduces side effects and hirsutism caused by danazol
